The structures appear in SMILES notation. Several values for one entry are separate records, joined by “and”; a condition that tells them apart may be missing. Identical values can stand only once.

Results on 2 compounds are retold here after US20090005443A1, “Treatment of Depression” (priority 2007, published 2009).

The subject of this data set is Patients with MDD. The format is in vivo. The following applies: for Ham-D change: baseline to end value, oral tablets, no visit qualifier given; for Ham-D change / Ham-D change (by penultimate visit): individual MDD patient; for Ham-D change (by penultimate visit): baseline to value by penultimate visit; for Reduction in patient depression, measured using the Hamilton-D rating scale: the five patients who completed the trial protocol (three tramadol, two amitriptyline). Here is the method: A Single Centre, Open Labelled, Comparative, Parallel Pilot Study to Evaluate the Antidepressant Activity of Tramadol in the Treatment of Major Depressive Disorder (MDD).
The investigational drug was administered in tablet form orally, with an initial dose of 200 mg daily for 2 weeks and then maintenance at 200-400 mg daily for a further 14 weeks.
Patients with MDD aged between 18 to 65 years old.
To evaluate the antidepressant activity of tramadol by comparing the change in Ham-D scores of patients with MDD when treated with tramadol as compared with amitriptyline.
Remission is defined as ≦7 on the 17 item Ham-D scale upon completion of week 8 of trial. Response is defined as ≧50% decrease from baseline depression on 17 item Ham-D score upon completion of week 8 of trial. Partial response is defined as <50% but ≧25% decrease from base line depression on 17 item Ham-D Scale. Recovery is defined as at least 8 weeks free from depression, as diagnosed according to DSM-IV-TR criteria.
This was a comparative, single centre, parallel, open-label randomized study in which half of the study population will receive tramadol and the other half will receive amitriptyline.
The primary endpoint is the treatment response of each study subject, as measured on the Ham-D 17-item scale (Hamilton Mass.). Study entry requires a Ham-D score of ≧15. To achieve remission, a cut-off score of ≦7 will be applied. Response will be defined as a ≧50% drop in score and a partial response will be defined as <50% but ≧25% drop in score. Recovery will be defined as at least 8 weeks free of major depression, as diagnosed according to DSM-IV-TR criteria.
In an open-label study comparing the treatment of Major Depressive Disorder with tramadol and amitriptyline, sixteen patients have been enrolled and five have completed the trial protocol. Of those five, three had received tramadol and two had received amitriptyline. […] A further eight patients are displaying solid therapeutic responses and there have been three drop-outs. Information on therapeutic responses of the first 12 patients is summarised below.

Regarding `CN(C)CCC=C1c2ccccc2CCc2ccccc21` [Amitriptyline, amitriptyline], the “Reduction in patient depression, measured using the Hamilton-D rating scale” value is reported as “clinically significant reduction in patient depression”. Moreover, under “17-item Ham-D score”, the Ham-D change is 22 to 0 and the “Ham-D change (by penultimate visit)” value is given as 19 to 4 (by penultimate. For the same compound, for the setting “human, in vivo”, the “Drop-out because of AE” value was “Dropped out after Visit 2”.
Take `COc1cccc(C2(O)CCCCC2CN(C)C)c1` (centres unmarked) [Tramadol]: the “Reduction in patient depression, measured using the Hamilton-D rating scale” value is listed as “clinically significant reduction in patient depression”. Moreover, where the note is “17-item Ham-D score”, the Ham-D change lay within 23 to 0; the “Ham-D change (by penultimate visit)” value was 26 to 0 (by penultimate and 26 to 4 (by penultimate (2×). In addition, the “Ham-D change (by visit 4 of 7)” value (17-item Ham-D score, baseline to value by visit 4 of 7, individual MDD patient) is 18 to 16 (by visit 4 of 7).
